Source: US10829520B2, “Beta-hairpin peptidomimetics” (POLYPHOR AG, priority 2015, dated 2020)
Where a SMILES comes first, the peptide text is derived from it. Bridges are numbered along the chain shown (N, C = ends). [ ]: non-standard residue; d: D form. The star is where a group is joined. NαAmidinoTrp = N=C(N)N[C@@H](Cc1c[nH]c2ccccc12)C(=O)*; NMeW = CN[C@@H](Cc1c[nH]c2ccccc12)C(=O)O; Hyp = O=C(O)[C@@H]1C[C@@H](O)CN1; Pen = CC(C)(S)[C@H](N)C(=O)O; Tle = CC(C)(C)[C@H](N)C(=O)O; dDab = NCC[C@@H](N)C(=O)O; Orn = NCCC[C@H](N)C(=O)O; Dab = NCC[C@H](N)C(=O)O; Sar = CNCC(=O)O

Key:
Format in all cases: cell-based
[1] = system: human red blood cells (hRBC); assay: Hemolysis of human red blood cells; details: red cells of human, 1 h
In short: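 Percent hemolysis = OD540 of peptide-treated supernatant relative to the 2.5% Triton X-100 (100%) control, PBS containing 0.001% acetic acid defining 0%. Peptides tested at 100 μg/mL against 20% (v/v) washed human RBC, 1 h, 37 °C, 300 rpm.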

[2] = system: Klebsiella pneumoniae 968733; details: 968733
Escherichia coli 926415 = details: 926415
[3] = system: Escherichia coli ATCC 25922; details: ATCC 25922
In short: (§1)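 MIC in μg/mL; CLSI microdilution; cation-adjusted Mueller-Hinton II with Polysorbate 80 (0.002%); 10^6 CFU/mL; 35° C, 18-20 h.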

[4] = system: Acinetobacter baumannii DSM 30008; details: DSM 30008
In short: as §1

[5] = system: Klebsiella pneumoniae SSI #3010; details: SSI #3010
In short: as §1

[6] = system: Pseudomonas aeruginosa ATCC 27853; details: ATCC 27853
In short: as §1

[7] = system: Acinetobacter baumannii 872842; details: 872842

Row | SMILES | Hemolysis at 100 μg/mL [1]; 100 | Klebsiella pneumoniae 968733 MIC [2] | Escherichia coli 926415 MIC (Escherichia coli 926415) | Escherichia coli ATCC 25922 MIC [3] | Acinetobacter baumannii DSM 30008 MIC [4] | Klebsiella pneumoniae SSI #3010 MIC [5] | Pseudomonas aeruginosa ATCC 27853 MIC [6] | Acinetobacter baumannii 872842 MIC [7] | Hemolysis at 100 μg/mL ([1]; 100 μg/mL)
1 | CC(=O)N[C@@H](Cc1c[nH]c2ccccc12)C(=O)N[C@@H](CCN)C(=O)N[C@H](C(=O)N[C@H]1CC(=O)NCC[C@@H](C(=O)N[C@@H](Cc2ccc(O)cc2)C(=O)N[C@@H](CCN)C(=O)N[C@H](C(=O)N[C@@H](CCN)C(=O)N[C@@H](CCN)C(=O)N[C@@H](CCN)C(=O)N[C@H]2CCNC(=O)[C@H]([C@@H](C)O)NC(=O)[C@H](CCN)NC(=O)[C@H](CCN)NC(=O)[C@H](CC(C)C)NC(=O)[C@@H](Cc3ccccc3)NC(=O)[C@H](CCN)NC2=O)[C@@H](C)O)NC(=O)[C@H](C(C)C)NC(=O)[C@@H]2CCCN2C(=O)[C@H]2CCCN2C(=O)[C@H](Cc2c[nH]cn2)NC1=O)C(C)(C)C [Ex. 167] (Ac-W[Dab][Tle]DH[dP]PV[Dab]Y[Dab]T[Dab][Dab][Dab][Dab][Dab][dF]L[Dab][Dab]T; lactam 4-9, 16-C) | <1% | 2 µg/mL | 1 µg/mL | 0.25 µg/mL | 0.5 µg/mL | 0.25 µg/mL | 0.125 µg/mL | 1 µg/mL | –
2 | CC(=O)N[C@@H](Cc1c[nH]c2ccccc12)C(=O)N[C@@H](CCN)C(=O)N[C@H](C(=O)N[C@H]1CC(=O)NCC[C@@H](C(=O)N[C@@H](Cc2ccc(O)cc2)C(=O)N[C@@H](CCN)C(=O)N[C@H](C(=O)N[C@@H](CCN)C(=O)N[C@@H](CCN)C(=O)N[C@@H](CCN)C(=O)N[C@H]2CCNC(=O)[C@H]([C@@H](C)O)NC(=O)[C@H](CCN)NC(=O)[C@H](CCN)NC(=O)[C@H](CC(C)C)NC(=O)[C@@H](CC(C)C)NC(=O)[C@H](CCN)NC2=O)[C@@H](C)O)NC(=O)[C@H](C(C)C)NC(=O)[C@@H]2CCCN2C(=O)[C@H]2CCCN2C(=O)[C@H](Cc2c[nH]cn2)NC1=O)C(C)(C)C [Ex. 168] (Ac-W[Dab][Tle]DH[dP]PV[Dab]Y[Dab]T[Dab][Dab][Dab][Dab][Dab][dL]L[Dab][Dab]T; lactam 4-9, 16-C) | 3% | 4 µg/mL | 0.5 µg/mL | 0.5 µg/mL | 2 µg/mL | 1 µg/mL | 0.25 µg/mL | 1 µg/mL | –
3 | CC(C)C[C@@H]1NC(=O)[C@H](CCCNC(=N)N)NC(=O)[C@@H](CCN)NC(=O)[C@H](C(C)C)NC(=O)[C@@H](NC(=O)[C@H](Cc2ccc(O)cc2)NC(=O)[C@H](CO)NC(=O)[C@@H](N)Cc2c[nH]c3ccccc23)CSSC[C@@H](C(=O)N[C@@H](Cc2ccc(O)cc2)C(=O)N[C@@H](CC(N)=O)C(=O)N(C)CC(=O)N[C@@H](CCN)C(=O)N[C@H](C(=O)N[C@@H](CCN)C(=O)N[C@H]2CCNC(=O)[C@H]([C@@H](C)O)NC(=O)[C@H](CCN)NC(=O)[C@H](CCN)NC(=O)[C@H](CC(C)C)NC(=O)[C@@H](CC(C)C)NC(=O)[C@H](CCN)NC2=O)[C@@H](C)O)NC1=O [Ex. 169] (H-WSYCV[dDab]RLCYN[Sar][Dab]T[Dab][Dab][Dab][dL]L[Dab][Dab]T; disulfide 4-9; lactam 16-C) | – | 2 µg/mL | 0.5 µg/mL | 0.5 µg/mL | 1 µg/mL | 0.25 µg/mL | 1 µg/mL | 1 µg/mL | 1%
4 | CC[C@H](C)[C@@H]1NC(=O)[C@@H]2CCCN2C(=O)[C@H]2CCCN2C(=O)[C@H](Cc2ccc(O)cc2)NC(=O)[C@@H](NC(=O)[C@@H](NC(=O)[C@H](CCN)NC(=O)[C@@H](N)CC(C)C)C(C)C)CSSC[C@@H](C(=O)N[C@@H](Cc2ccc(O)cc2)C(=O)N[C@@H](CCN)C(=O)N(C)CC(=O)N[C@@H](CCN)C(=O)N[C@H](C(=O)N[C@@H](CCN)C(=O)N[C@H]2CCNC(=O)[C@H]([C@@H](C)O)NC(=O)[C@H](CCN)NC(=O)[C@H](CCN)NC(=O)[C@H](CC(C)C)NC(=O)[C@@H](CC(C)C)NC(=O)[C@H](CCN)NC2=O)[C@@H](C)O)NC1=O [Ex. 170] (H-L[Dab]VCY[dP]PICY[Dab][Sar][Dab]T[Dab][Dab][Dab][dL]L[Dab][Dab]T; disulfide 4-9; lactam 16-C) | – | 0.5 µg/mL | 0.25 µg/mL | 0.5 µg/mL | 1 µg/mL | 1 µg/mL | 0.5 µg/mL | 0.125 µg/mL | 1%
5 | CC(=O)N[C@@H](CC(C)C)C(=O)N[C@@H](CO)C(=O)N[C@H](C(=O)N[C@H]1CSSC[C@@H](C(=O)N[C@@H](Cc2ccc(O)cc2)C(=O)N[C@@H](CC(N)=O)C(=O)N[C@@H](CCCN)C(=O)N[C@H](CCN)C(=O)N[C@@H](CCN)C(=O)N[C@@H](CCN)C(=O)N[C@H]2CCNC(=O)[C@H]([C@@H](C)O)NC(=O)[C@H](CCN)NC(=O)[C@H](CCN)NC(=O)[C@H](CC(C)C)NC(=O)[C@@H](Cc3ccccc3)NC(=O)[C@H](CCN)NC2=O)NC(=O)[C@H](CC(C)C)NC(=O)[C@H](CCCNC(=N)N)NC(=O)[C@@H](CCN)NC(=O)[C@H](C(C)C)NC1=O)C(C)(C)C [Ex. 171] (Ac-LS[Tle]CV[dDab]RLCYN[Orn][dDab][Dab][Dab][Dab][Dab][dF]L[Dab][Dab]T; disulfide 4-9; lactam 16-C) | – | 4 µg/mL | 2 µg/mL | 1 µg/mL | 2 µg/mL | 1 µg/mL | 0.5 µg/mL | 2 µg/mL | 2%
6 | CC(C)C[C@@H]1NC(=O)[C@@H](CC(C)C)NC(=O)[C@H](CCN)NC(=O)[C@@H](NC(=O)[C@H](CCN)NC(=O)[C@H](CCN)NC(=O)[C@H](CCN)NC(=O)CNC(=O)[C@H](CCN)NC(=O)[C@H](Cc2ccc(O)cc2)NC(=O)[C@@H]2CCNC(=O)C[C@H](NC(=O)[C@@H](NC(=O)[C@H](CCN)NC(=O)[C@H](Cc3c[nH]c4ccccc34)NC(=N)N)C(C)C)C(=O)N[C@@H](Cc3ccc(O)cc3)C(=O)N3CCC[C@@H]3C(=O)N3CCC[C@H]3C(=O)N[C@@H](C(C)C)C(=O)N2)CCNC(=O)[C@H]([C@@H](C)O)NC(=O)[C@H](CCN)NC(=O)[C@H](CCN)NC1=O [Ex. 172] (NαAmidinoTrp-[Dab]VDY[dP]PV[Dab]Y[Dab]G[Dab][Dab][Dab][Dab][Dab][dL]L[Dab][Dab]T; lactam 3-8, 15-C) | 1% | 0.5 µg/mL | 0.5 µg/mL | 0.0625 µg/mL | 0.0625 µg/mL | 0.125 µg/mL | 0.125 µg/mL | 0.25 µg/mL | –
7 | CC(C)C[C@@H]1NC(=O)[C@@H](CC(C)C)NC(=O)[C@H](CCN)NC(=O)[C@@H](NC(=O)[C@H](CCN)NC(=O)[C@@H](NC(=O)[C@H](CCN)NC(=O)CNC(=O)[C@H]2NC(=O)[C@H](Cc3ccc(O)cc3)NC(=O)[C@H](CO)NC(=O)[C@H](CC(C)C)NC(=O)[C@@H]3CCCN3C(=O)[C@H]3CCCN3C(=O)[C@H](CO)NC(=O)[C@H](C)NC(=O)[C@H](C(C)C)NC(=O)[C@@H](NC(=O)[C@H](Cc3c[nH]c4ccccc34)NC(=N)N)CSSC2(C)C)[C@@H](C)O)CCNC(=O)[C@H]([C@@H](C)O)NC(=O)[C@H](CCN)NC(=O)[C@H](CCN)NC1=O [Ex. 173] (NαAmidinoTrp-CVAS[dP]PLSY[Pen]G[Dab]T[Dab][Dab][Dab][dL]L[Dab][Dab]T; disulfide 1-10; lactam 15-C) | – | 1 µg/mL | 0.5 µg/mL | 0.125 µg/mL | 0.125 µg/mL | 0.125 µg/mL | 0.5 µg/mL | 0.25 µg/mL | 1%
8 | CN[C@@H](Cc1c[nH]c2ccccc12)C(=O)N[C@H]1CSSC[C@@H](C(=O)N(C)CC(=O)N[C@@H](CCN)C(=O)N[C@H](C(=O)N[C@@H](CCN)C(=O)N[C@H]2CCNC(=O)[C@H]([C@@H](C)O)NC(=O)[C@H](CCN)NC(=O)[C@H](CCN)NC(=O)[C@H](CC(C)C)NC(=O)[C@@H](CC(C)C)NC(=O)[C@H](CCN)NC2=O)[C@@H](C)O)NC(=O)[C@H](Cc2ccc(O)cc2)NC(=O)[C@H]([C@@H](C)O)NC(=O)[C@H](C(C)C)NC(=O)[C@@H]2C[C@@H](O)CN2C(=O)[C@@H](C)NC(=O)[C@H]([C@@H](C)O)NC(=O)[C@H](C)NC(=O)[C@H](C(C)C)NC1=O [Ex. 175] (H-[NMeW]CVAT[dA][Hyp]VTYC[Sar][Dab]T[Dab][Dab][Dab][dL]L[Dab][Dab]T; disulfide 2-11; lactam 16-C) | – | 0.5 µg/mL | 0.5 µg/mL | 0.0625 µg/mL | 0.0625 µg/mL | 0.0625 µg/mL | 0.25 µg/mL | 1 µg/mL | <1%
